As usually defined, the melting point is the temperature, or range, at which the solid turns liquid.

Some results are limits rather than exact numbers.

As to `COc1cc(C(=O)NS(=O)(=O)c2ccccc2C)ccc1Cc1c(Cl)n(C)c2cc(Cl)c(CCNC(=O)N(C)C)cc12`, the melting point lay in the range of 236 to 238 °C. For `COCc1cnc2c(N)cc(C)cc2c1Cl`, the melting point fell in the range of 135 to 138 °C. The value for `CN(Cc1ccccc1)c1cc(=S)ss1` was 138 to 140 °C; that for `CC(C)(C)c1cc(CC(C)(C)C2OCCS2)cc(C(C)(C)C)c1O` (stereo not drawn) was 77 °C; that for `CC=C(C)c1c(-c2ccc(S(C)(=O)=O)cc2)cnn(CC(F)(F)F)c1=O` was 175 to 180 °C. For `CC(=O)N1CCC(COC2c3ccccc3C(=O)N2c2ccc3ccc(Cl)nc3n2)CC1` (stereo not drawn), the melting point came out at 160 °C. `CN(C(C(=O)NO)C(C)(C)CN1C(=O)c2ccccc2C1=O)S(=O)(=O)c1ccc(Oc2ccccc2)cc1` (stereo not drawn) yielded a melting point of 189 to 190 °C. To `N#Cc1ncn2c1[C@@H]1CCN1C(=O)c1sccc1-2` belongs 211 to 213 °C; to `CC(C)(C)c1ccc(C(=O)C(Cl)(Cl)Cl)cc1`, 59 to 62 °C.

The compound `Cc1cc(C)c2c(c1)c1c(n2Cc2ccc(Cl)cc2)C(CC(=O)O)CCC1` (stereo not drawn) came in with a melting point of 187 to 188 °C. The value for `Cc1cc(Cl)cc(C(=O)NC2(C)CS(=O)(=O)C2)c1NC(=O)c1cc(OCC(F)(F)F)nn1-c1ncccc1Cl` was > 250 °C; that for `O=C(O)Cc1c(-c2ccccc2)nn(-c2ccccc2Cl)c1-c1ccccc1` was 191 to 193 °C; that for `O=C(C=Cc1cccnc1)NCCCCC1CCN(C(=O)N(c2ccccc2)c2ccccc2)CC1` was 132 to 134 °C.

Regarding `COc1ccc(-c2nc(C)cc(Cl)n2)cc1`, the melting point was in the range of 80 to 81 °C. On to `CCOC(=O)N1CCCC(NC(=O)c2ccc(Cl)c(Cl)c2)C12CCCCC2` (stereo not drawn), for which the melting point is 74 to 77 °C. To `O=C1c2ccc(Cl)cc2-n2c1nc1ccccc1c2=O` belongs 301 to 303 °C. The value for `CC1(O)C=CC2C3CCC4=CC(=O)CCC4C3C(c3ccc(-c4ccc(C#N)cc4)cc3)CC21C` (stereo not drawn) was 206 °C; that for `Ic1cnn(-c2cccnc2)c1` was 145 to 146 °C. The value for `CCCCCCCCCCCCCCOc1ccc(CC(=O)O)cc1Cl` was 68 to 69 °C. `Cc1cc(-c2cccc(C(F)(F)F)c2)c2ncc(OC(F)F)nc2c1` returned a melting point of 105 to 106 °C.

`O=C(O)CSc1nc(-c2ccccc2)ns1`: the melting point came to 97 °C.

With `O=C(O)CCNc1c2ccc(Cl)cc2nc2c(=O)[nH][nH]c(=O)c12`, the melting point lay within 356 to 359 °C. The compound `CN(C(CCN1C(=O)c2ccccc2C1=O)C(=O)O)S(=O)(=O)c1ccc(Oc2ccc(Cl)cc2)cc1` (stereo not drawn) returned a melting point of 166 to 167 °C. To `COc1cc(Cc2ccccc2)c(O)c2c1C(C)(C)CCC2(C)C` belongs 80 °C; to `NS(=O)(=O)c1ccc(-c2cc(-c3c[nH]nc3-c3cccc(C4CC4)n3)ccc2F)cc1`, 225 to 226 °C; to `CCOC(=O)C=C1C(OC)CC1c1cccc(C2(c3ccc(OC(F)F)cc3)N=C(N)N(C)C2=O)c1` (stereo not drawn), 78 to 80 °C. On to `Cc1oc(-c2ccccc2)nc1COc1ccc(Cn2cc(CCC(=O)O)c(-c3ccccc3)n2)cc1`, for which the melting point was 179 to 180 °C. To `Fc1ccc(-c2nc3c(c(=S)[nH]2)CCCC3)cc1` belongs 198 to 200 °C; to `COc1ccc(C(=O)Nc2cc(OC)c(Cl)cc2OC)cc1F`, 197 to 199 °C. To `Cn1nc(-c2cc([N+](=O)[O-])c(Cl)cc2F)c(Cl)c1S(C)=O` (stereo not drawn) belongs 151 °C; to `Cc1cc(C(F)(C(F)(F)F)C(F)(F)F)ccc1NC(=O)c1ccnc(Cl)c1C(=O)NC(C)C`, 275 to 277 °C; to `[N-]=[N+]=NC(c1ccccc1)C(O)c1ccccc1` (stereo not drawn), 59 to 60 °C.

The compound `CC1CN(Cc2ccccc2)c2c3c(nc4cccc(c24)O1)CCCC3` (stereo not drawn) came in with a melting point of 152 to 153 °C.
